Active and inactive are the calls of the source. No cut-off for these calls is given here.
Legend:
[1] = biological target: Glycylpeptide N-tetradecanoyltransferase (Saccharomyces cerevisiae) (UniProt P14743); experiment: Tested in vitro for the production of Acylpeptide by yeast N-myristoyltransferase (NMT) assay
Pseudomonas = experiment: Tested in vitro for the production of acyl-CoA by Acyl-CoA synthetase in Pseudomonas
CCRF-CEM [2] = experiment: Tested for cytotoxicity against HIV-1 uninfected CEM cells; type: functional; conditions: Homo sapiens, read-out: TD50 (the source's name)
CCRF-CEM [3] = experiment: Tested for the antiviral activity against HIV-1 infected CEM cells; type: functional; conditions: Homo sapiens, read-out: ID50 (the source's name)
[4] = biological target: T1, Glycylpeptide N-tetradecanoyltransferase 1 (Homo sapiens) (UniProt P30419); experiment: In vitro production of Acylpeptide by human N-myristoyltransferase (NMT) assay
T1 sequence (whole entry): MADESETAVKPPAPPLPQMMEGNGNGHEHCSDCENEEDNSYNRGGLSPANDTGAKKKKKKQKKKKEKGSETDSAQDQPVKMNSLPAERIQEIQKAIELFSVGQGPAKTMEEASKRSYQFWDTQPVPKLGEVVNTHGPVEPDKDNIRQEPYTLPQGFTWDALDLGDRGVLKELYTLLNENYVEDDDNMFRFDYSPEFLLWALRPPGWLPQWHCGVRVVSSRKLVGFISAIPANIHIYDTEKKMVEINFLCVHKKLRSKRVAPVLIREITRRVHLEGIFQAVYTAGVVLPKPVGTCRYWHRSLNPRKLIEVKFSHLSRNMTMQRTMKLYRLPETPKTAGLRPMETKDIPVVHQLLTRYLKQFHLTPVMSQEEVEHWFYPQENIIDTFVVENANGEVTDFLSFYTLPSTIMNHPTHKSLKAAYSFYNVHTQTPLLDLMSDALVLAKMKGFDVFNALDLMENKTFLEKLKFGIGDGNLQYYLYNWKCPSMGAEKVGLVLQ

Homo sapiens = species: Homo sapiens; experiment: Tested in vitro for the production of acyl-CoA of compound by Acyl-CoA synthetase in human
CCRF-CEM [5] = experiment: Tested for cytotoxicity against HIV-1 uninfected CEM cells; Value ranges from 80-190; type: functional; conditions: Homo sapiens, read-out: TD50 (the source's name)
CCRF-CEM [6] = experiment: Tested for the antiviral activity against HIV-1 infected CEM cells; Value ranges from 1-5; type: functional; conditions: Homo sapiens, read-out: ID50 (the source's name)
CCRF-CEM [7] = experiment: Tested for the antiviral activity against HIV-1 infected CEM cells; Value ranges from 9-20; type: functional; conditions: Homo sapiens, read-out: ID50 (the source's name)
CCRF-CEM [8] = experiment: Tested for the antiviral activity against HIV-1 infected CEM cells; NA means not active; type: functional, cell-based; conditions: Homo sapiens

Chain of Glycylpeptide N-tetradecanoyltransferase (Saccharomyces cerevisiae) (P14743 whole entry, looked up): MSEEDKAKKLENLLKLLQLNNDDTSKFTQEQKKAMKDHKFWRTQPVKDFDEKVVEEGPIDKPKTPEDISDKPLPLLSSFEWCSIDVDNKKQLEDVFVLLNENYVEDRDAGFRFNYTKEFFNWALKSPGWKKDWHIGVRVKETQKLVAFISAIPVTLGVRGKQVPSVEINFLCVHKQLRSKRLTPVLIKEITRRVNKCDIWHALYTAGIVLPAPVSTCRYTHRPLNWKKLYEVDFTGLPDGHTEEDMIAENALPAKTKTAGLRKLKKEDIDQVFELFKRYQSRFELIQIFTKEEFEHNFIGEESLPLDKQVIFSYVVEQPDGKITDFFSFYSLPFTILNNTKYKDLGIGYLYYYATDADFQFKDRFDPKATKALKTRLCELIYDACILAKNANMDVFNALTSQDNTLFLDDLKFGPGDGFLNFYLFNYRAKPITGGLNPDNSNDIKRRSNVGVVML

Row | Myristoylpeptide [1] [%] | MyristoylCoA (Pseudomonas) [%] | IC50 (CCRF-CEM [3]) [µM] | Myristoylpeptide [4] [%] | MyristoylCoA (Homo sapiens) [%] | IC50 (CCRF-CEM [6]) [µM] | IC50 (CCRF-CEM [7]) [µM] | SMILES | CC50 (CCRF-CEM [2]) [µM] | CC50 (CCRF-CEM [5]) [µM] | ID50 (CCRF-CEM [8])
1 | 7 | 78 | 5 | 5 | 12 | – | – | COCCCCCCCCC/C=C/C(=O)O | > 80 | – | –
2 | 109 | 175 | – | 84 | 75 | 1 | – | COCCCCCCCCCCCCC(=O)O | – | 80 | –
3 | 107 | – | 77 | < 5 | – | – | – | COCCCCCCCCC(O)CCC(=O)O (centres undefined) | > 400 | – | –
4 | < 5 | 94 | – | 5 | < 5 | 1 | – | COCCCCCCCCCC(F)CC(=O)O (centres undefined) | 300 | – | –
5 | < 5 | 114 | – | < 5 | < 5 | – | 9 | COCCCCCCCCCC(O)CC(=O)O (centres undefined) | 280 | – | –
6 | 14 | 14 | – | < 5 | 26 | – | – | COCCCCCCCCCCC(F)C(=O)O (centres undefined) | > 100 | – | inactive

— ChEMBL document CHEMBL1126994, “Synthesis of myristic acid analogs with anti-HIV activity that may be resistant to metabolic processing by -oxidation” (1993)
